Patent US20090018116A1, “Therapeutic Compounds” (ASTRAZENECA AB, priority 2004, published 2009)

How the values were obtained:
[1] = molecular target: T1, Human CB1 receptor (Homo sapiens, UniProt P21554); test: hCB1 receptor binding (3H-CP55,940 displacement); conditions: hCB1 membranes, Ki=IC50/(1+[rad]/Kd)
T1 construct: purchased Receptor Biology
Protocol: The total and non-specific binding are determined in the absence and presence of 0.2 μM of HU210 respectively. The plates are vortexed and incubated for 60 minutes at room temperature, filtered through Unifilters GF/B (presoaked in 0.1% polyethyleneimine) with the Tomtec or Packard harvester using 3 mL of wash buffer (50 mM Tris, 5 mM MgCl2, 0.5 mg BSA pH 7.0). The filters are dried for 1 hour at 55° C. The radioactivity (cpm) is counted in a TopCount (Packard) after adding 65 μl/well of MS-20 scintillation liquid.
Based on the above assays, the dissociation constant (Ki) for a particular compound of the invention towards a particular receptor is determined using the following equation:
[rad] is a standard or reference radioactive ligand concentration at that moment; and
Kd is the dissociation constant of the radioactive ligand towards the particular receptor.

[2] = molecular target: T1, Human CB1 receptor; test: hCB1 GTPγS binding; assay type: biochemical; conditions: hCB1 membranes, GTPg35S binding; for Emax: maximal stimulation with 10 μM Win 55,212-2
Protocol: Human CB1 receptor from Receptor Biology (hCB1) or human CB2 receptor membranes (BioSignal) are thawed at 37° C., passed 3 times through a 25-gauge blunt-end needle and diluted in the GTPγS binding buffer (50 mM Hepes, 20 mM NaOH, 100 mM NaCl, 1 mM EDTA, 5 mM MgCl2, pH 7.4, 0.1% BSA). […] The basal and maximal stimulated binding is determined in absence and presence of 1 μM (hCB2) or 10 μM (hCB1) Win 55,212-2 respectively. The membranes are pre-incubated for 5 minutes with 56.25 μM (hCB2) or 112.5 μM (hCB1) GDP prior to distribution in plates (15 μM (hCB2) or 30 μM (hCB1) GDP final). The plates are vortexed and incubated for 60 minutes at room temperature, filtered on Unifilters GF/B (presoaked in water) with the Tomtec or Packard harvester using 3 ml of wash buffer (50 mM Tris, 5 mM MgCl2, 50 mM NaCl, pH 7.0). The filters are dried for 1 hour at 55° C. The radioactivity (cpm) is counted in a TopCount (Packard) after adding 65 μl/well of MS-20 scintillation liquid. Antagonist reversal studies are done in the same way except that (a) an agonist dose-response curve is done in the presence of a constant concentration of antagonist, or (b) an antagonist dose-response curve is done in the presence of a constant concentration of agonist.

T1 sequence (P21554 whole entry): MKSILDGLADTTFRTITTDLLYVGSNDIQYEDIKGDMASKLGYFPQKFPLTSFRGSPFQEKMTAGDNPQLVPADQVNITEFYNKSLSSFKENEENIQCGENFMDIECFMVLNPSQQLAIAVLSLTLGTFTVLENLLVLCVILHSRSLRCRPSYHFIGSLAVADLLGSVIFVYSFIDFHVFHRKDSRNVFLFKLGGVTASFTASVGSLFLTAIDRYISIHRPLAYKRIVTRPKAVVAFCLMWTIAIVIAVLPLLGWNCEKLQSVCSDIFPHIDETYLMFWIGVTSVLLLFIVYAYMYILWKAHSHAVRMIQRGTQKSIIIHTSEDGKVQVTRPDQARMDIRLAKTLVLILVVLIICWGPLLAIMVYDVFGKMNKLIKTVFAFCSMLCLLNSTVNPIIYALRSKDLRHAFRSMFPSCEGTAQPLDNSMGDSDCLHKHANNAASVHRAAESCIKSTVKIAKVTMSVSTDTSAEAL

O=C(NCC1CCC1)c1cc(Cl)ccc1NC(=O)c1cccc2ccccc12 [Example 17, N-[4-Chloro-2-[[(cyclobutylmethyl)amino]carbonyl]phenyl]-1-naphthalenecarboxamide]
Ki [1]: 7.3 nM | EC50 [2]: 41 nM | Emax [2]: 95%

O=C(NC1CCOCC1)c1cc(Cl)ccc1NC(=O)c1cccc2ccccc12 [Example 30, N-[4-Chloro-2-[[(tetrahydro-2H-pyran-4-yl)amino]carbonyl]phenyl]-1-naphthalenecarboxamide]
Ki [1]: 71 nM | EC50 [2]: 304 nM | Emax [2]: 109%

O=C(NCC1CCCCC1)c1c(O)cccc1NC(=O)c1cccc2ccccc12 [Example 49, N-[2-[[(Cyclohexylmethyl)amino]carbonyl]-3-hydroxyphenyl]-1-naphthalenecarboxamide]
Emax [2]: 109%
